Experimental data as given in patent US8759534B2, “Trimethine cyanine and its use” (Orgchem Technologies, Inc., priority 2011, dated 2014).

Test: Solubility in TFP
Type: physicochemical
Details: solvent TFP (2,2,3,3-tetrafluoro-1-propanol)

| Solubility (in TFP) | SMILES |
| --- | --- |
| 4.8% | CN1/C(=C/C=C/C2=[N+](C)c3ccc4ccccc4c3C2(C)Cc2ccc(Oc3ccc(CC4(C)C(/C=C/C=C5/N(C)c6ccc7ccccc7c6C5(C)Cc5ccccc5)=[N+](C)c5ccc6ccccc6c54)cc3)cc2)C(C)(Cc2ccccc2)c2c1ccc1ccccc21 (centres unmarked) [Compound No. 1] |
| 3.6% | CCN1/C(=C/C=C/C2=[N+](C)c3ccc4ccccc4c3C2(C)Cc2ccc(Cc3ccc(CC4(C)C(/C=C/C=C5/N(CC)c6ccc7ccccc7c6C5(C)Cc5ccccc5)=[N+](C)c5ccc6ccccc6c54)cc3)cc2)C(C)(Cc2ccccc2)c2c1ccc1ccccc21 (centres unmarked) [Compound No. 13] |
| 5.3% | CN1/C(=C/C=C/C2=[N+](C)c3ccc4ccccc4c3C2(C)CC=CCC2(C)C(/C=C/C=C3/N(C)c4ccc5ccccc5c4C3(C)Cc3ccccc3)=[N+](C)c3ccc4ccccc4c32)C(C)(Cc2ccccc2)c2c1ccc1ccccc21 (centres unmarked) [Compound No. 26] |
| 5.3% | CN1/C(=C/C=C/C2=[N+](Cc3ccccc3)c3ccc4ccccc4c3C2(C)CC=CCC2(C)C(/C=C/C=C3/N(C)c4ccc5ccccc5c4C3(C)Cc3ccccc3)=[N+](Cc3ccccc3)c3ccc4ccccc4c32)C(C)(Cc2ccccc2)c2c1ccc1ccccc21 (centres unmarked) [Compound No. 29] |
| 4.17% | CCCN1/C(=C/C=C/C2=[N+](CCC(C)C)c3ccc4ccccc4c3C2(C)CC=CCC2(C)C(/C=C/C=C3/N(CCC)c4ccccc4C3(C)C)=[N+](CCC(C)C)c3ccc4ccccc4c32)C(C)(C)c2ccccc21 (centres unmarked) [Compound No. 34] |
